From PMC8007111, “Novel Potent Muscarinic Receptor Antagonists: Investigation on the Nature of Lipophilic Substituents in the 5- and/or 6-Positions of the 1,4-Dioxane Nucleus” (Journal of Medicinal Chemistry, 2020)

How the values were obtained:
Settings in all cases: [3H]NMS, CHO-K1 cell membranes, mean ± S.E.M.
hM1 mAChR = target: T1, hM1 mAChR (Homo sapiens, UniProt P11229); experiment: [3H]NMS inhibition radioligand binding, hM1 in CHO-K1 cell membranes
T1 construct: expressed in transfected cells; host or cells: CHO-K1 (membrane preparation)
T1 sequence (P11229 1-460): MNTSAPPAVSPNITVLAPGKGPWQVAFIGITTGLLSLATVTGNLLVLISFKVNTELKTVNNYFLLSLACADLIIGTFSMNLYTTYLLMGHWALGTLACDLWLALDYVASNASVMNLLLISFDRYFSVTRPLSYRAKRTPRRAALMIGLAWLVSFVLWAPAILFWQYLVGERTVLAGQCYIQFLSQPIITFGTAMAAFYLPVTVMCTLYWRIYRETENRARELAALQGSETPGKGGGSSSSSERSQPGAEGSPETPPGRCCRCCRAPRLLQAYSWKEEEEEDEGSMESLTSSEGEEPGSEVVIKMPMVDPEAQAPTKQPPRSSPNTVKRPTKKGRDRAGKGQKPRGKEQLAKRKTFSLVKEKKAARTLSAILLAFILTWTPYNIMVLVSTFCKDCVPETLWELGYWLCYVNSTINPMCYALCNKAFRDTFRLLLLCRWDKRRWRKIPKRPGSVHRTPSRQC
Protocol: (§1) CHO-K1 cells stably transfected with the human muscarinic receptor subtypes (hM1–5) were grown in Dulbecco’s modified Eagle’s medium (DMEM) with nutrient mixture F12 (DMEM/F12, 50/50), containing 10% fetal bovine serum, penicillin (100 U/mL), streptomycin (100 U/mL), L-glutamine (4 mM), and geneticin (G-418, 50 μg/mL) at 37 °C in a 5% CO2 humidified incubator. […] Serum (0.7 mL) was added to inactivate the trypsin, and the cells were spun down by centrifuging at 300g for 5 min. The cells were then resuspended in ice-cold 25 mM sodium phosphate buffer containing 5 mM MgCl2, pH 7.4 (binding buffer) and homogenized using a cell disrupter (Ultra-Turrax, setting 3, 30 s). The homogenate was sedimented by centrifugation (17,000g, 15 min). The supernatant was discarded, and the resulting membrane pellets were resuspended with Ultra-Turrax in the same buffer to give a final protein concentration of 1–2 mg/mL. The protein content was determined by the method of Bradford (1976) with bovine serum albumin (Sigma) as a standard and stored at −80 °C.
(§2) Inhibition radioligand binding assays were conducted as previously described[48],[49] with 0.2 nM [^3H]NMS in binding buffer in a final volume of 250 μL. Nonspecific binding was defined in the presence of 10 μM atropine. Briefly, membrane fractions (about 25–70 μg/mL of protein) were incubated with radioligand and unlabeled test compounds for 2 h at r.t. Bound and free radioactivity were separated by filtering the assay mixture through UniFilter GF/B plates using a FilterMate Cell Harvester (PerkinElmer Life and Analytical Science). The filter bound radioactivity was counted by a TopCount NXT Microplate Scintillation Counter (PerkinElmer Life and Analytical Science). Data (cpm) were normalized to percentage-specific binding and analyzed using a four-parameter logistic equation in GraphPad Prism 5.02; IC50 values were determined, and Ki values were calculated.[59]

hM4 mAChR = target: T2, hM4 mAChR (Homo sapiens, UniProt P08173); experiment: [3H]NMS inhibition radioligand binding, hM4 in CHO-K1 cell membranes
T2 construct: expressed in transfected cells; host or cells: CHO-K1 (membrane preparation)
T2 sequence (P08173 1-479): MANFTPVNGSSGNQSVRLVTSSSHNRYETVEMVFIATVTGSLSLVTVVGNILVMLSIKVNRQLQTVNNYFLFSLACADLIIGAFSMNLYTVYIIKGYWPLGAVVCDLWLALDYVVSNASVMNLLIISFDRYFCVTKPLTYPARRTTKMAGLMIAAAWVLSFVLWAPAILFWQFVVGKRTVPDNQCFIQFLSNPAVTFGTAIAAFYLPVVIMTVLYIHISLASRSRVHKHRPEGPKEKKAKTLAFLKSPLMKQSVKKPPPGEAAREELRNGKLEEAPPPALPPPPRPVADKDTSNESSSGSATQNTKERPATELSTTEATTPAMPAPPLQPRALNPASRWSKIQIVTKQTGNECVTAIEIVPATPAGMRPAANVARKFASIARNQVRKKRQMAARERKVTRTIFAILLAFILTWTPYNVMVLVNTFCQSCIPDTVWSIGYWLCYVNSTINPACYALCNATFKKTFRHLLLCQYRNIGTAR
Protocol: as §1, §2

hM5 mAChR = target: T3, hM5 mAChR (Homo sapiens, UniProt P08912); experiment: [3H]NMS inhibition radioligand binding, hM5 in CHO-K1 cell membranes
T3 construct: expressed in transfected cells; host or cells: CHO-K1 (membrane preparation)
T3 sequence (P08912 1-532): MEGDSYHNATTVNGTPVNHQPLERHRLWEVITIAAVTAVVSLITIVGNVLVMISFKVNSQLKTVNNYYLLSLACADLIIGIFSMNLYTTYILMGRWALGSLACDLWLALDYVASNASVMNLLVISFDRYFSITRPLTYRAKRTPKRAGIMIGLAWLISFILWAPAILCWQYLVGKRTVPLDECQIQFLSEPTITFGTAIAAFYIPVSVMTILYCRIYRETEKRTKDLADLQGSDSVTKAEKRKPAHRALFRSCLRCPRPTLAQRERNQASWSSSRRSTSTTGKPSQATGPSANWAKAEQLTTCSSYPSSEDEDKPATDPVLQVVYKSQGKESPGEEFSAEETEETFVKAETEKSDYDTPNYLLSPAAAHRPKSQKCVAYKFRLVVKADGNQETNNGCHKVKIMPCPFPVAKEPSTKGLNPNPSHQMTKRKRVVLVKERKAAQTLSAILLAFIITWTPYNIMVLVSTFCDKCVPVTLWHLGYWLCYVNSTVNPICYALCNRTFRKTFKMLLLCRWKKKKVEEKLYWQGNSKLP
Protocol: as §1, §2

hM2 mAChR = target: T4, hM2 mAChR (Homo sapiens, UniProt P08172); experiment: [3H]NMS inhibition radioligand binding, hM2 in CHO-K1 cell membranes
T4 construct: expressed in transfected cells; host or cells: CHO-K1 (membrane preparation)
T4 sequence (P08172 1-466): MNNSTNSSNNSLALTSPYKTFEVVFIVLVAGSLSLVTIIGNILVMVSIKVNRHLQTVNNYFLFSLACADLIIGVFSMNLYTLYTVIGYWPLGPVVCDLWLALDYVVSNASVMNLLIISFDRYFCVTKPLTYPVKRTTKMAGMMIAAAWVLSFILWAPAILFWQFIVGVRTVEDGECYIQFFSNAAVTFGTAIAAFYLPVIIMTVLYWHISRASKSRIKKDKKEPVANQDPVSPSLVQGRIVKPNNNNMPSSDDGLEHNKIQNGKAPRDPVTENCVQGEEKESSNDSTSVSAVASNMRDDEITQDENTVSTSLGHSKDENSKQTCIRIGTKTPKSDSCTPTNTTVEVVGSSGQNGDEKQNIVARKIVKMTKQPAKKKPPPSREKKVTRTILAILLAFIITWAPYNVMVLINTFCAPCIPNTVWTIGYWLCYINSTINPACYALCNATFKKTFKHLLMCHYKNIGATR
Protocol: as §1, §2

hM3 mAChR = target: T5, hM3 mAChR (Homo sapiens, UniProt P20309); experiment: [3H]NMS inhibition radioligand binding, hM3 in CHO-K1 cell membranes
T5 construct: expressed in transfected cells; host or cells: CHO-K1 (membrane preparation)
Protocol: as §1, §2

T5 sequence (P20309 whole entry): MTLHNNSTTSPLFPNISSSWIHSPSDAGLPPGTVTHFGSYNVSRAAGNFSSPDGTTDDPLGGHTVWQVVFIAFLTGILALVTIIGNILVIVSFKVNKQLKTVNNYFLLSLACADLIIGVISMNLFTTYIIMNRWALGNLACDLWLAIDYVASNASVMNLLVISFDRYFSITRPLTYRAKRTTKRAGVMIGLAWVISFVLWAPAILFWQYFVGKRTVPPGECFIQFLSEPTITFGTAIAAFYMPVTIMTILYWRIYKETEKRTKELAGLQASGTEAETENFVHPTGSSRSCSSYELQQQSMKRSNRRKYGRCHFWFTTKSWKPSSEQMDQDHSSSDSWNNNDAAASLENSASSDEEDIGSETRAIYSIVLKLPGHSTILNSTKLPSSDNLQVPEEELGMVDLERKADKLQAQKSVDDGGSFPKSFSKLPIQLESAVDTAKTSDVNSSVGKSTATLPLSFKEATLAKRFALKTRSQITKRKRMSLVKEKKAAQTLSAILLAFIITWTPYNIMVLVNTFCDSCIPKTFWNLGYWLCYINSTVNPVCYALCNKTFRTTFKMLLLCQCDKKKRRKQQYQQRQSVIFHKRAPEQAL

pKi hM1 (hM1 mAChR)	pKi hM4 (hM4 mAChR)	pKi hM5 (hM5 mAChR)	pKi hM2 (hM2 mAChR)	pKi hM3 (hM3 mAChR)	Ki (hM1 mAChR; read-out: pKi hM1 (converted))	Ki (hM4 mAChR; read-out: pKi hM4 (converted))	Ki (hM5 mAChR; read-out: pKi hM5 (converted))	Ki (hM2 mAChR; read-out: pKi hM2 (converted))	Ki (hM3 mAChR; read-out: pKi hM3 (converted))	Structure (SMILES)
5.29 ± 0.07	5.20 ± 0.07	5.80 ± 0.06	6.70 ± 0.01	5.63 ± 0.14	–	–	–	–	–	C[N+](C)(C)C[C@@H]1COC[C@@H](c2ccc(S(=O)(=O)c3ccccc3)cc2)O1.[I-] (relative stereo) [8b, 1-((2R*,6R*)-6-(4-(Phenylsulfonyl)phenyl)-1,4-dioxan-2-yl)-N,N,N-trimethylmethanaminium Iodide]
5.85 ± 0.09	5.25 ± 0.08	5.34 ± 0.07	5.72 ± 0.09	5.33 ± 0.12	–	–	–	–	–	C[N+](C)(C)C[C@@H]1CO[C@@H](c2ccccc2)[C@H](c2ccccc2)O1.[I-] (relative stereo) [18a, 1-((2R*,5S*,6S*)-5,6-Diphenyl-1,4-dioxan-2-yl)-N,N,N-trimethylmethanaminium Iodide]
7.68 ± 0.16	7.01 ± 0.08	7.16 ± 0.27	7.17 ± 0.11	6.73 ± 0.06	–	–	–	–	–	CN(C)C[C@@H]1COC[C@](c2ccccc2)(C2CCCCC2)O1 [(2R,6R)-(+)-33b]
6.28 ± 0.08	5.60 ± 0.06	5.49 ± 0.06	5.87 ± 0.09	5.77 ± 0.03	–	–	–	–	–	C[N+](C)(C)C[C@@H]1CO[C@H](C(c2ccccc2)c2ccccc2)CO1.[I-] (relative stereo) [12a, 1-((2R*,5R*)-5-Benzhydryl-1,4-dioxan-2-yl)-N,N,N-trimethylmethanaminium Iodide]

Second part, the compound before the results:

Structure (SMILES)	pKi hM1 (hM1 mAChR)	pKi hM4 (hM4 mAChR)	pKi hM5 (hM5 mAChR)	pKi hM2 (hM2 mAChR)	pKi hM3 (hM3 mAChR)	Ki (hM1 mAChR; read-out: pKi hM1 (converted))	Ki (hM4 mAChR; read-out: pKi hM4 (converted))	Ki (hM5 mAChR; read-out: pKi hM5 (converted))	Ki (hM2 mAChR; read-out: pKi hM2 (converted))	Ki (hM3 mAChR; read-out: pKi hM3 (converted))
C[N+](C)(C)C[C@@H]1CO[C@H](c2ccc([S+]([O-])c3ccccc3)cc2)CO1.[I-] (relative stereo) [16a, 1-((2R*,5R*)-5-(4-(Phenylsulfinyl)phenyl)-1,4-dioxan-2-yl)-N,N,N-trimethylmethanaminium Iodide]	<5	<5	5.21 ± 0.08	5.52 ± 0.02	<5	–	–	–	–	–
C[N+](C)(C)C[C@@H]1CO[C@@H](c2ccc(-c3ccccc3)cc2)CO1.[I-] (relative stereo) [13b, 1-((2R*,5S*)-5-([1,1′-Biphenyl]-4-yl)-1,4-dioxan-2-yl)-N,N,N-trimethylmethanaminium Iodide]	<5	<5	<5	5.49 ± 0.02	<5	–	–	–	–	–
C[N+](C)(C)C[C@@H]1COC(c2ccccc2)C(c2ccccc2)(c2ccccc2)O1 (stereo in doubt) [19b, 1-((2R*,5R*)-5,6,6-Triphenyl-1,4-dioxan-2-yl)-N,N,N-trimethylmethanaminium Iodide]	–	–	–	–	–	0.55 µM	1.17 µM	1.45 µM	2.14 µM	1.1 µM
C[N+](C)(C)C[C@@H]1CO[C@H](c2ccccc2)[C@@H](c2ccccc2)O1.[I-] (relative stereo) [18b, 1-((2R*,5R*,6R*)-5,6-Diphenyl-1,4-dioxan-2-yl)-N,N,N-trimethylmethanaminium Iodide]	6.30 ± 0.09	5.40 ± 0.09	5.52 ± 0.08	5.65 ± 0.09	5.81 ± 0.10	–	–	–	–	–
C[N+](C)(C)C[C@@H]1COC[C@@H](c2ccc(Sc3ccccc3)cc2)O1.[I-] (relative stereo) [6b, 1-((2R*,6R*)-6-(4-(Phenylthio)phenyl)-1,4-dioxan-2-yl)-N,N,N-trimethylmethanaminium Iodide]	5.51 ± 0.01	5.70 ± 0.02	5.95 ± 0.13	6.71 ± 0.01	5.77 ± 0.05	–	–	–	–	–
C[N+](C)(C)C[C@@H]1CO[C@H](c2ccc(Cc3ccccc3)cc2)CO1.[I-] (relative stereo) [14a, 1-((2R*,5R*)-5-(4-Benzylphenyl)-1,4-dioxan-2-yl)-N,N,N-trimethylmethanaminium Iodide]	<5	<5	5.53 ± 0.13	5.65 ± 0.05	5.65 ± 0.12	–	–	–	–	–
C[N+](C)(C)C[C@@H]1CO[C@H](c2ccccc2)CO1.[I-] (relative stereo) [9a, 1-((2R*,5R*)-5-Phenyl-1,4-dioxan-2-yl)-N,N,N-trimethylmethanaminium Iodide]	5.63 ± 0.07	5.10 ± 0.07	<5	5.06 ± 0.10	5.14 ± 0.10	–	–	–	–	–
C[N+](C)(C)C[C@@H]1CO[C@@H](C(c2ccccc2)c2ccccc2)CO1.[I-] (relative stereo) [12b, 1-((2R*,5S*)-5-Benzhydryl-1,4-dioxan-2-yl)-N,N,N-trimethylmethanaminium Iodide]	6.08 ± 0.07	5.52 ± 0.06	5.20 ± 0.01	6.06 ± 0.08	5.62 ± 0.11	–	–	–	–	–
C[N+](C)(C)C[C@@H]1CO[C@@H](c2ccc([S+]([O-])c3ccccc3)cc2)CO1.[I-] (relative stereo) [16b, 1-((2R*,5S*)-5-(4-(Phenylsulfinyl)phenyl)-1,4-dioxan-2-yl)-N,N,N-trimethylmethanaminium Iodide]	5.17 ± 0.09	5.42 ± 0.02	5.72 ± 0.15	6.38 ± 0.10	5.88 ± 0.14	–	–	–	–	–
